Data published in patent US8637038B2, “Methods for inhibiting allograft rejection” (Rigel Pharmaceuticals, Inc., priority 2011, dated 2014).
Read-outs that look alike come from different tables or passages of the source.

Tests used:
[1] = system: H1299 lung carcinoma cells; experiment: H1299 proliferation; assay type: cell-based; details: Homo sapiens
Experimental: The erythropoietin (EPO)-dependent survival of cultured human erythroid progenitor cells (CHEPs) was determined using CellTiter-Glo® Luminescent Cell Viability Assay (Promega). Human primary T cell activation was assessed by measuring IL-2 production by ELISA (R&D Systems, Minneapolis, Minn., USA) following plate-bound anti-CD3 and anti-CD28 stimulation (Anti-Human CD3; BD Biosciences; Anti-Human CD28; Immunotech; Prague, Czech Republic). The enzymatic activity of tryptase released by human cultured mast cells (CHMCs) upon stimulation with IgE was quantified by cleavage of the synthetic fluorescent peptide substrate Z-Ala-Lys-Arg-7-amino-4-methylcoumarin (MP Biomedicals, Solon, Ohio, USA) in tryptase buffer. B-cell receptor-dependent Erk phosphorylation was measured in Ramos cells by intracellular FACS (anti-pT202/pY204-ERK1/2-AlexaFluor488; BD Biosciences). Cell proliferation assays were performed using A549 epithelial cells and H1299 lung carcinoma cells using nuclear staining to measure cell numbers (4′6-diamidino-2-phenylindole, dihydrochloride (DAPI; Invitrogen, Darmstadt, Germany)).

[2] = system: human peripheral blood lymphocytes; experiment: Mixed lymphocyte reaction (MLR); assay type: cell-based
Experimental: The activity of Compound III and Compound I was assessed in a panel of cell-based assays. Compound III and Compound I are selective inhibitors of JAK1/3-dependent signaling. Data for a non-selective JAK inhibitor (Compound IV) is shown for reference. Mixed lymphocyte reactions (MLRs) were performed by incubating freshly prepared naive human peripheral blood lymphocytes from one donor with CD80+/CD86+ mature Dendritic Cells derived from a different donor for 5 days. The percentage of CD3+/CD71+ (anti-CD3-APC, Clone HIT3a, anti-CD 71-FITC, Clone M-A712; BD Biosciences, San Jose, Calif.) proliferating cells was assessed by fluorescence-activated cell sorting (FACS; BD Bioscience). Interleukin-2 (IL-2)-dependent human primary T cell proliferation was assessed using CellTiter-Glo® Luminescent Cell Viability Assay (Promega, Madison, Wis.). STAT phosphorylation induced by different cytokines in human primary T cells was measured by intracellular FACS analysis (anti-pY694-STAT5 AlexaFluor488, anti-pY701-STAT1 AlexaFluor488, and anti-pY693-STAT4 AlexaFluor488; BD Biosciences). STAT phosphorylation induced by different cytokines was performed in whole blood after red blood cell lysis (Lyse/Fix buffer, BD Biosciences) and methanol permeabilization. Interferon-γ (IFN-γ) signaling was assessed in the U937 monocytic cell line by measuring ICAM-1 surface expression by FACS (ICAM-1-APC, BD Bioscience).

[3] = system: Lew recipients of heterotopic BN heart transplants; experiment: Five-day heart allograft study: H+E histology, ISHLT rejection classification; assay type: in vivo, rat; details: HD (Compound I 60 mg/kg BID, Compound III 20 mg/kg BID, Tac 4 mg/kg QD); five days after transplantation
Source text: Male Brown Norway (BN) and Lewis (Lew) rats weighing 350 g were purchased from Harlan (Indianapolis, Ind.) and were housed under conventional conditions. All animals were fed standard rat chow and water ad libitum and received humane care in compliance with the Principles of Laboratory Animal Care formulated by the National Society for Medical Research and the Guide for the care and Use of Laboratory Animals published by the National Institutes of Health (National Institutes of Health publication No. 85-23, revised 1985). Allogeneic (BN-to-Lew) and syngeneic (Lew-to-Lew) heterotopic heart transplantations were performed as described previously (Ono et al., J. Thorac. Cardiovasc. Surg. 57:225-229, 1969). In brief, rats were anaesthetized using 2% isoflurane. The donor received an intravenous bolus of 500 I.U. heparin. Cardiac arrest was achieved using 20 ml Bretschneider solution (Custodiol, Dr. F. Koehler Chemie, Bensheim, Germany). […] Heart-beating score was assessed directly after transplantation for each animal from score 0 (no palpable contraction) to 4 (strong and regular contraction). Only animals with beating scores of 4 were included into the study. Compound I and Compound III were provided by Rigel (South San Francisco, Calif.) and Tacrolimus was provided by Astellas (Munich, Germany). All drugs were administrated orally each in two different concentrations: Compound I LD (15 mg/kg BID; n=6) and HD (60 mg/kg BID; n=6); […] Administration of all drugs was performed every day at the same time points. Tacrolimus was applied only once a day (QD) every 24 hours. During administration of Compound I (BID) and Compound III (BID) a 12 hour pause was kept in between each drug application. Lew recipients of heterotopic BN heart transplants were randomly assigned to their group. […] An untreated syngeneic transplant group Lew-Lew was generated as control. Grafts were recovered five days after transplantation and fixed in 4% paraformaldehyde (Science Services, Munich, Germany), dehydrated and embedded in paraffin. […] Waldeck, Carl Roth GmbH, Munster, Germany) and examined by standard light microscopy. The extent of acute cardiac graft rejection in H+E staining was examined by an experienced pathologist according to the 2004 ISHLT working formulation (Stewart et al., J. Heart Lung Transplant. 24:1710-1720, 2005).

[4] = read-out: EC50, proliferative response of human primary T-cells in the mixed lymphocyte reaction

| SMILES | EC50 ([1]; NCI-H1299, upstream kinases Multiple, read-out: H1299 proliferation EC50) [nM] | EC50 ([2]; 120 h, 5 days, CD3+/CD71+ proliferating cells by FACS, read-out: MLR EC50) [nM] | EC50 [2, 4] [nM] | hearts with ISHLT score of 0 [3] [%] | hearts with ISHLT score of 1 [3] [%] | hearts with ISHLT score of 2 [3] [%] | hearts with ISHLT score of 3 [3] | EC50 ([1]; NCI-H1299, read-out: H1299 proliferation EC50) [nM] | EC50 ([2]; 120 h, read-out: MLR EC50) [nM] |
| --- | --- | --- | --- | --- | --- | --- | --- | --- | --- |
| COc1cc(Nc2ncc(C)c(Nc3ccc4oc(=O)[nH]c4c3)n2)cc(C)c1F [Compound I, 5-(2-(4-fluoro-3-methoxy-5-methylphenylamino)-5-methylpyrimidin-4-ylamino)benzo[d]oxazol-2(3H)-one] | 3430 ± 1310 | 16 ± 7 | 16 | 17 | 50 | 17 | 17% | – | – |
| COc1cc(Nc2ncc(C)c(Nc3ccc4oc(=O)[nH]c4c3)n2)cc(C)c1C [Compound III, 5-(2-(3-methoxy-4,5-dimethylphenylamino)-5-methylpyrimidin-4-ylamino)benzol[d]oxazol-2-(3H)-one] | – | – | 22 | 33 | 50 | 17 | no scores of 3 | 5080 ± 1820 | 22 ± 6 |
